# From patent US7736625B2, “Light stabilized in vivo stain composition and method of manufacture” (Zila, Inc., priority 2001, dated 2010)
# Test: light stability of thiazine dye solution exposed to ambient incandescent light
# Assay type: physicochemical
# Settings: total metal content less than 0.2 wt. %; initially deep-blue; overnight in the laboratory
# Experimental: This example illustrates the light-instability of a TC product with negligible content of metal ions.
# A sample of the TC product is prepared in accordance with Example 1 of my U.S. Pat. No. 6,086,852, incorporated herein by reference, and further purified by preparative high performance liquid chromatography. The total metal content of this sample is less than 0.2 wt. %.
# An aliquout of this purified TC product sample is deep-blue in color.
smiles,measurement,value
"Cc1cc2nc3ccc(=[N+](C)C)cc-3sc2cc1N.[Cl-] [TC product, tolonium chloride]",appearance of the solution after standing overnight exposed to ambient incandescent light,becomes colorless
